Drawing on the RepoRT retention time repository (doi:10.1007/s11306-014-0638-x), this text covers LC retention time for 60 compounds.

The series is described as follows: RP, Waters ACQUITY UPLC HSS T3, 150 × 2.1 mm, 1.8 µm, 40 °C, 0.28 mL/min, estimated dead time 1.2 min; A: water + 0.1% formic acid, pH 3; B: methanol + 0.1% formic acid, pH 3; gradient (min/%B) 0/0 1/0 3/10 18/40 21/100 25.5/100 25.6/0 28/0. The settings on record: stereoisomer not certain.

`O=c1c(OS(=O)(=O)O)c(-c2ccc(O)c(O)c2)oc2cc(O)cc(O)c12` [quercetin 3-sulfate]: the LC retention time is 20.1 min. Under `COc1cc(C(=O)O)cc(OC)c1O` [syringic acid] stands 13.8 min; under `COc1cc2ccc(=O)oc2c(OC2OC(CO)C(O)C(O)C2O)c1O` (stereo not given) [fraxin], 12.6 min; under `COc1cc(C=Cc2cc(O)cc(OC3OC(CO)C(O)C(O)C3O)c2)ccc1O` (stereo not given) [isorhapontin], 17.6 min. Under `CC1OC(OCC2OC(Oc3c(-c4ccc(O)c(O)c4)oc4cc(O)cc(O)c4c3=O)C(O)C(O)C2O)C(O)C(O)C1O` (stereo not given) [quercetin 3-rutinoside] stands 20 min; under `O=c1c(OC2OC(CO)C(O)C(O)C2O)c(-c2ccc(O)cc2)oc2cc(O)cc(O)c12` (stereo not given) [kaempferol 3-glucoside], 20.3 min; under `O=C(O)C1OC(Oc2c(-c3ccc(O)c(O)c3)oc3cc(O)cc(O)c3c2=O)C(O)C(O)C1O` (stereo not given) [quercetin 3-glucuronide], 19.9 min. With `O=c1c(OC2OC(C(O)CO)C(O)C2O)c(-c2ccc(O)c(O)c2)oc2cc(O)cc(O)c12` (stereo not given) [quercetin 3-glucoside], the LC retention time was 20 min. Regarding `O=C(C=Cc1ccc(O)c(O)c1)OC(C(=O)O)C(O)C(=O)O` (stereo not given) [caftaric acid], the LC retention time was 8.53 min. Under `O=C(O)c1cc(O)cc(O)c1` [3,5-dihydroxybenzoic acid] stands 7.75 min; under `CCOc1ccc(NC(C)=O)cc1` [phenacetin], 19.4 min; under `N[C@@H](Cc1ccc(O)cc1)C(=O)O` [L-tyrosine], 4.28 min.

Consider `O=C1CC(c2ccc(O)cc2)Oc2cc(OC3OC(CO)C(O)C(O)C3O)cc(O)c21` (stereo not given) [naringenin 7-glucoside], for which the LC retention time is 19.5 min. Under `COc1ccc(C2CC(=O)c3c(O)cc(O)cc3O2)cc1O` (stereo not given) [hesperetin] stands 21.1 min; under `O=C(O)CCC(=O)O` [succinic acid], 3.94 min; under `O=c1cc[nH]c(=O)[nH]1` [uracil], 2.34 min. With `O=C(O)C1(O)CC(O)C(O)C(O)C1` (stereo not given) [quinic acid] the figure was 1.58 min; with `COc1cc(-c2oc3cc(=O)cc4oc(O)cc(c2OC2OC(CO)C(O)C(O)C2O)c43)cc(OC)c1O` (stereo not given) [oxovitisin A], 20.7 min.

For the compound `CCC(=O)O` [proprionic acid], the LC retention time is 3.95 min. Turning to `NC(CCC(=O)NC(CS)C(=O)NCC(=O)O)C(=O)O` [L-glutathione], the LC retention time was 1.7 min. For the compound `O=C(O)[C@H](O)[C@@H](O)C(=O)O` [L-tartaric acid], the LC retention time is 1.46 min.

As to `O=c1c(O)c(-c2ccc(OC3OC(CO)C(O)C(O)C3O)c(O)c2)oc2cc(O)cc(O)c12` (stereo not given) [quercetin 4'-glucoside], the LC retention time is 20.4 min.

For `O=c1[nH]c(=O)c2[nH]c(=O)[nH]c2[nH]1` [uric acid], the LC retention time is 3.44 min. With `CC1OC(OCC2OC(Oc3c(-c4ccc(O)cc4)oc4cc(O)cc(O)c4c3=O)C(O)C(O)C2O)C(O)C(O)C1O` (stereo not given) [kaempferol 3-rutinoside] the figure was 20.5 min. Under `COc1cc(-c2oc3cc(=O)cc4oc(O)c(C=[OH+])c(c2OC2OC(CO)C(O)C(O)C2O)c43)cc(OC)c1O` (stereo not given) [vitisin A] stands 19.3 min; under `CC[C@H](C)[C@H](N)C(=O)O` [L-isoleucine], 4.44 min; under `O=C(C=Cc1ccc(O)cc1)OC(C(=O)O)C(O)C(=O)O` (stereo not drawn) [trans coutaric acid], 10.7 min. With `OCC1OC(Oc2cc(O)cc(C=Cc3ccc(O)cc3)c2)C(O)C(O)C1O` (stereo not drawn) [cis-piceid] the figure was 18.4 min. Turning to `O=C(O)[C@@H]1CCCN1` [L-proline], the LC retention time is 1.51 min. With `O=C(O)c1ccc(O)cc1` [4-hydroxybenzoic acid] the figure was 10.6 min. Under `COc1cc(-c2oc3cc(=O)cc4oc(C)cc(c2OC2OC(CO)C(O)C(O)C2O)c43)cc(OC)c1O` (stereo not given) [methylpyrano malvidin 3-glucoside] stands 19.7 min; under `Oc1ccc(/C=C\c2cc(O)cc(O)c2)cc1` [cis-resveratrol], 20.4 min; under `Oc1cc(O)c2c(c1)OC(c1cc(O)c(O)c(O)c1)C(O)C2` (stereo not given) [gallocatechin], 8.68 min. With `O=c1oc2c(O)c(O)cc3c(=O)oc4c(O)c(O)cc1c4c23` [ellagic acid], the LC retention time is 20.3 min. With `O=C(OC1Cc2c(O)cc(O)cc2OC1c1ccc(O)c(O)c1)c1cc(O)c(O)c(O)c1` (stereo not given) [epicatechin gallate] the figure was 16 min. With `Oc1ccc(C2c3c(O)cc(O)cc3C3C(c4ccc(O)cc4)c4c(O)cc(O)cc4C23)cc1` (stereo not given) [pallidol] the figure was 17.6 min; with `O=c1[nH]c(=O)c2[nH]cnc2[nH]1` [xanthine], 3.97 min. With `O=c1c(OC2OC(CO)C(O)C(O)C2O)c(-c2ccc(OC3OC(CO)C(O)C(O)C3O)c(O)c2)oc2cc(O)cc(O)c12` (stereo not given) [quercetin 3,4'-diglucoside] the figure was 17.4 min; with `O=C(CCc1ccc(O)cc1)c1c(O)cc(O)cc1O` [phloretin], 21.1 min.

For the compound `O=C(OC1Cc2c(O)cc(O)cc2OC1c1cc(O)c(O)c(O)c1)c1cc(O)c(O)c(O)c1` (stereo not given) [epigallo-catechin gallate], the LC retention time was 12.7 min. Under `Oc1ccc(C2Oc3cc(O)cc(O)c3CC2O)cc1` (stereo not given) [epiafzelechin] stands 15.6 min. Regarding `CCOC(=O)c1cc(O)c(O)c(O)c1` [ethyl gallate], the LC retention time was 15.2 min. With `Oc1cc(O)c2c(c1)OC(c1ccc(O)c(O)c1)C(O)C2` (stereo not given) [epicatechin] the figure was 12.1 min; with `O=C1CC(c2ccc(O)c(O)c2)c2c(cc(O)c3c2OC(c2ccc(O)c(O)c2)C(O)C3)O1` (stereo not given) [caffeic acid+catechin condensation product], 17.8 min; with `CC(O)(CC(=O)O)C(=O)O` (stereo not given) [citramalic acid], 4.02 min. With `Oc1cc(O)c2c(c1)OC(c1ccc(O)c(O)c1)C(O)C2c1c(O)cc(O)c2c1OC(c1ccc(O)c(O)c1)C(O)C2` (stereo not given) [procyanidin B1] the figure was 9.66 min; with `COc1cc(C=CC(=O)OC(C(=O)O)C(O)C(=O)O)ccc1O` (stereo not given) [fertaric acid], 11.8 min; with `Oc1ccc(C2Oc3cc(O)cc4c3C2c2cc(O)cc(O)c2C(c2ccc(O)cc2)C4C2c3cc(O)cc4c3C(c3cc(O)cc(O)c3C2c2ccc(O)cc2)C(c2ccc(O)cc2)O4)cc1` (stereo not given) [isohopeaphenol], 10.7 min. Under `Oc1ccc(C2Oc3ccc(C=Cc4cc(O)cc5c4C(c4cc(O)cc(O)c4)C(c4ccc(O)cc4)O5)cc3C2c2cc(O)cc3c2C(c2cc(O)cc(O)c2)C(c2ccc(O)cc2)O3)cc1` (stereo not given) [vitisin B] stands 18.3 min.

Consider `COC(=O)c1cc(O)c(O)c(O)c1` [methyl gallate], for which the LC retention time was 10.7 min. Turning to `COc1cc(C=Cc2ccc(O)cc2)cc(OC)c1` [pterostilbene], the LC retention time is 21.9 min. With `O=C1c2c(O)cc(O)cc2OC(c2ccc(O)c(O)c2)C1O` (stereo not given) [taxifolin] the figure was 16.8 min; with `O=C1CC(c2ccc(O)cc2)Oc2cc(O)cc(O)c21` (stereo not given) [naringenin], 21 min. In the case of `O=C(O)c1ccc(O)c(O)c1` [3,4-dihydroxybenzoic acid], the LC retention time is 7.77 min.

Consider `COc1cc(-c2oc3cc(O)cc(O)c3c(=O)c2OC2OC(CO)C(O)C(O)C2O)ccc1O` (stereo not given) [isorhamnetin 3-glucoside], for which the LC retention time was 20.5 min. With `O=C(CCc1ccc(O)cc1)c1c(O)cc(O)cc1OC1OC(CO)C(O)C(O)C1O` (stereo not given) [phloridzin] the figure was 20.2 min.

With `O=C(O)C=Cc1ccccc1O` [o-coumaric acid], the LC retention time was 19.7 min. Under `O=c1cc(-c2ccc(O)c(O)c2)oc2cc(OC3OC(CO)C(O)C(O)C3O)cc(O)c12` (stereo not given) [luteolin 7-glucoside] stands 19.7 min; under `OCC1OC(Oc2cc(O)cc(C=Cc3ccc(O)c(O)c3)c2)C(O)C(O)C1O` (stereo not given) [astringin], 14.2 min; under `COc1cc(-c2oc3cc(O)cc(O)c3c(=O)c2OC2OC(COC3OC(C)C(O)C(O)C3O)C(O)C(O)C2O)ccc1O` (stereo not given) [isorhamnetin 3-rutinoside], 20.6 min.
